Values of other authors, collected in patent US12409239B2, “Particles for use in hyperpolarization” (BEACON MRI LTD, priority 2021, dated 2025).

Details: background statement

T1: about a minute
SMILES: CC(=O)C(=O)O [pyruvate/pyruvic acid, pyruvic acid]
